# Experimental data published in publication PMC8538057, “Direct Delivery of ANA-TA9, a Peptide Capable of Aβ Hydrolysis, to the Brain by Intranasal Administration” (Pharmaceutics, 2021).
# Where two headings read alike, the source gives them in different places. Ends that are not written are not given here.
# Legend:
# [1] = In vitro stability in the plasma; assay type: in vitro ADME; conditions: rat plasma, 10 μL ANA-TA9 PBS solution (0.1 mg/mL or 1 mg/mL) added to 90 μL plasma, 37 °C, methanol deproteinization, LC/MS, three experiments
# Description: After the anesthetization of rats with an i.p. application of the anesthetic mixture, the cerebrospinal fluid (CSF) was collected by cisternal puncture, followed by the collection of whole blood from the polyethylene cannula inserted into the right femoral artery. The blood was heparinized and centrifuged at 15,000 rpm for 10 min at 4 °C, and the supernatant was collected as plasma.
# ANA-TA9 was dissolved in PBS at a concentration of 0.1 mg/mL or 1 mg/mL. Immediately before the incubation, 5 μL or 10 μL of the ANA-TA9 solution was added to 45 μL or 90 μL of CSF or plasma, respectively. Similarly, 10 μL of the ANA-TA9 solution was added to 90 μL of whole blood. At predetermined times after the incubation at 37 °C, the samples were cooled by placing them on ice. Methanol (1 mL) was added to the plasma and whole blood for deproteinization. The mixtures were then vortexed and centrifuged at 15,000 rpm for 5 min at 4 °C. […] The concentrations of ANA-TA9 in the plasma and whole blood were measured by LC/MS. The ANA-TA9 concentrations were measured in the CSF samples by LC/MS without any treatments.
# Chromatographic separation was performed using a C18 analytical column (TSKgel ODS 100V, 3 μm, 2.0 mm × 100 mm; TOSOH, Tokyo, Japan). […] ANA-TA9 eluting from the column was detected with mass spectrometry under the positive mode. […] The calibration curves of ANA-TA9 in the plasma and the brain were determined.
# [2] = Degradation of ANA-TA9 in the rat nasal cavity (nasal perfusion); assay type: in vivo; conditions: 15 mL PBS at 10 μg/mL, 120 min, LC/MS, mean of three experiments
# Description: Polyethylene tubing was inserted into the rat esophagus and trachea according to the method of Hirai et al.. Briefly, under anesthesia with the anesthetic mixture described in Section 2.3.2, the trachea was cannulated with polyethylene tubing, and another tube was inserted from the esophagus to the posterior part of the nasal cavity. The nasopalatine was closed with surgical adhesive. A solution of ANA-TA9 (15 mL PBS at 10 μg/mL) was perfused from the esophagus through the nasal cavity using a peristaltic pump (SJ-1211-H; ATTO, Tokyo, Japan). The perfusing solution of ANA-TA9 was sampled at predetermined times. The ANA-TA9 concentration in the perfusate was measured by liquid chromatography-mass spectrometry (LC/MS) after the same pretreatment as that of the plasma described in Section 2.4.2.
# [3] = In vivo brain distribution study after i.n. and i.p. administration to mice; design: species or system Male ddY mice; conditions: mouse; for Tmax: plasma
# Description: For i.n. administration, ANA-TA9 was dissolved in PBS at a concentration of 100 mg/mL. Since the profile of the concentration in the plasma after i.p. administration was similar with that after i.n. administration, i.p. administration served as the control for i.n. administration. The nasal solution was diluted to 10 mg/mL for i.p. administration. Male ddY mice weighing 25 g were purchased from Japan SLC. The animals were maintained under conventional housing conditions. After anesthetization by the inhalation of isoflurane (2%), ANA-TA9 solution (5 μL each) was administered to both nostrils of the mice. The ANA-TA9 solution (100 μL) was administered peritoneally. After making an incision in the abdomen at 5, 15, 30, 45, 60, and 90 min after administration, blood was collected from the postcaval vein. Soon after the blood sampling, the heparinized ice-cold saline was flushed by perfusion from the left ventricle to remove the blood from the cerebral blood vessel. The whole brain was removed; washed with ice-cold saline; and divided into three sections: olfactory bulb, frontal brain, and occipital brain. The tissue concentrations of ANA-TA9 were measured with LC/MS. The plasma and brain concentrations of ANA-TA9 were determined by LC/MS, LC-20A, and LCMS-2020 (SHIMADZU, Kyoto, Japan). Briefly, 100 μL of the plasma were mixed with 1000 μL of methanol. […] To the dissected brain tissue, 100 μL of ice-cold purified water were added, and the mixture was homogenized under ice-cold conditions. To the homogenate, 4000 μL of ice-cold methanol were added. […] The residues were reconstituted with 100 μL of the mobile phase of the chromatography. In the preliminary study, it was confirmed that the effect of rapid degradation of ANA-TA9 on the assay could be excluded by the treatment on the blood and brain tissues mentioned above. Chromatographic separation was performed using a C18 analytical column (TSKgel ODS 100V, 3 μm, 2.0 mm × 100 mm; TOSOH, Tokyo, Japan). The mobile phase was acetonitrile/0.1% acetic acid (10/90), and the flow rate was 0.2 mL/min. ANA-TA9 eluting from the column was detected with mass spectrometry under the positive mode. Nitrogen gas was used for nebulization at a flow rate of 1.5 L/min. Other conditions (temperature and voltage) were set as the default. The calibration curves of ANA-TA9 in the plasma and the brain were determined. […] For the calculation of the direct transport percentage (DTP), the equation by Fukuda M. et al. was slightly modified. The modified equation is as follows:(1) %DTP=(AUCbrain)IN−(AUCbrain)X/(AUCbrain)IN×100 (2) (AUCbrain)X=(AUCbrain)IP/(AUCplasma)IP×(AUCplasma)IN in the above equation, AUCbrain,i.p. and AUCplasma,i.p. are used in place of AUCbrain,i.v. and AUCplasma,i.v. in the original equation by Fukuda M. et al.
# Aβ42 = conditions: also three Aβ fragment peptides, particularly Aβ11–29; cited from earlier work
# From the text: Recently, we reported the proteolytic activity of the shorter synthetic peptides JAL-TA9 (YKGSGFRMI) and ANA-TA9 (SKGQAYRMI), derived from the Box A region of the Tob1 and ANA/BTG3 proteins. These peptides cleave Aβ42 and three Aβ fragment peptides, particularly Aβ11–29 originating from the central region, which is considered the core region of Aβ42 aggregation/oligomerization. We gave these peptides the general name Catalytide. Catalytides such as JAL-TA9 and ANA-TA9 are attractive candidate peptide drugs for a novel strategy for preventing and treating AD.
sequence,measurement,setting,value
SKGQAYRMI [ANA-TA9],concentration of ANA-TA9 in the plasma at 5 min after the start of the incubation,[1],20000 ng/mL
same,"concentration in the nasal perfusate, % of the initial concentration",[2],54%
same,tissue level at time at 5 min,"[3]; male, ddY, in vivo, inhaled or intranasal, 1 mg",712 ± 54 ng/g
same,Tmax,"[3]; male, ddY, inhaled or intranasal, 1 mg, i.n., read-out: time of peak plasma concentration, i.n. (converted)",5 min
same,Tmax,"[3]; male, ddY, ip, 1 mg, i.p., read-out: time of peak plasma concentration, i.p. (converted)",5 min
same,"time of peak concentration in the frontal brain, i.n.",[3]; i.n.,30 min
same,"time of peak concentration in the occipital brain, i.n.",[3]; i.n.,30 min
same,"time of peak concentration in the olfactory bulb, i.n.",[3]; i.n.,5 min
same,"DTP (direct transport percentage), olfactory bulb","[3]; i.n. vs i.p., from the AUC up to 90 min after administration, mean ± SE of four or five animals",96.3 ± 0.9%
same,"time of peak concentration in the olfactory bulb, i.p.",[3]; i.p.,15 min
same,apparent half-life in the olfactory bulb after i.n. administration,[3]; in vivo,15 min
same,time after i.n. administration at which ANA-TA9 could be detected in the olfactory bulb,[3]; in vivo,60 min
same,concentration in the olfactory bulb more than 45 min after i.p. application,"[3]; in vivo, ip",below the limit of detection
same,"peak plasma concentration, i.p. relative to i.n. (times higher)","[3]; in vivo, ip",approximately 11 times
same,cleavage of Aβ42 (proteolytic activity),Aβ42,cleave Aβ42
